Laboratory results from ChEMBL document CHEMBL6121069, “A Medicinal Chemistry Perspective on Protein Tyrosine Phosphatase Nonreceptor Type 2 in Tumor Immunology” (J Med Chem, 2025).
pIC50: −log10 of the molar value.

These compounds were tested on B16-F10 (assay: cells). Settings: Mus musculus.
Description: Antiproliferative activity against mouse B16-F10 cells

| Compound | pIC50 |
| --- | --- |
| CC1Cc2c(cc(O)c(N3CC(=O)NS3(=O)=O)c2F)CCN1 (stereo unspecified) | 6.57 |
| O=C1CN(c2c(O)cc3c(c2F)CCNCC3)S(=O)(=O)N1 | 6.46 |
| O=C1CN(c2c(O)cc(NC(=O)NC3CCCCC3)cc2F)S(=O)(=O)N1 | > 5.30 |
| CC(C)CCN[C@@H]1C[C@H]2C[C@@H]1c1c2cc(O)c(N2CC(=O)NS2(=O)=O)c1F | 5.11 |
| O=C1CN(c2c(O)cc3c(c2F)C[C@H](NCCC2CCC2)CC3)S(=O)(=O)N1 | > 6.00 |
| Cc1ccc(NCc2cc(O)c(N3CC(=O)NS3(=O)=O)c(F)c2)nn1 | 6.20 |
| CCN[C@@H]1CCc2cc(O)c(N3CC(=O)NS3(=O)=O)c(F)c2CC1 | 4.27 |
| CC(C)CCN[C@@H]1CNc2cc(O)c(N3CC(=O)NS3(=O)=O)c(F)c2C1 | 5.84 |
| Cc1ccnc(NCc2cc(F)c(N3CC(=O)NS3(=O)=O)c3[nH]ncc23)c1 | 6.46 |
| O=C1CN(c2c(O)cc3c(c2F)C[C@H](NCCC2CCCC2)CC3)S(=O)(=O)N1 | > 7.30 |
| COc1ccnc(NCc2cc(O)c(N3CC(=O)NS3(=O)=O)c(F)c2)c1 | 6.85 |
| COc1cc(C)nc(NCc2cc(O)c(N3CC(=O)NS3(=O)=O)c(F)c2)c1 | 7.30 |
| CC1(C)CCC(NCc2cc(O)c(N3CC(=O)NS3(=O)=O)c(F)c2)CC1 | 4.09 |
| O=C1CN(c2c(O)cc3c(c2F)C[C@H](NCCC2CC2)CC3)S(=O)(=O)N1 | 6.66 |
| COc1cccc(NCc2cc(O)c(N3CC(=O)NS3(=O)=O)c(F)c2)n1 | 5.06 |
| COc1cc(C)nc(NCc2cc(F)c(N3CC(=O)NS3(=O)=O)c3[nH]ncc23)c1 | 7.70 |
| N[C@@H]1CCc2cc(O)c(N3CC(=O)NS3(=O)=O)c(F)c2CC1 | 5.79 |
| O=C1CN(c2c(O)cc3c(c2F)C[C@H](NCCC(F)F)CC3)S(=O)(=O)N1 | 5.82 |
| O=C1CN(c2c(O)cc3c(c2F)C[C@H](NCCCC(F)(F)F)CC3)S(=O)(=O)N1 | > 7.30 |

Each compound was assayed against T1, Tyrosine-protein phosphatase non-receptor type 2 (Homo sapiens, UniProt P17706) (assay: not given). Settings: not given.
T1 sequence (P17706 whole entry): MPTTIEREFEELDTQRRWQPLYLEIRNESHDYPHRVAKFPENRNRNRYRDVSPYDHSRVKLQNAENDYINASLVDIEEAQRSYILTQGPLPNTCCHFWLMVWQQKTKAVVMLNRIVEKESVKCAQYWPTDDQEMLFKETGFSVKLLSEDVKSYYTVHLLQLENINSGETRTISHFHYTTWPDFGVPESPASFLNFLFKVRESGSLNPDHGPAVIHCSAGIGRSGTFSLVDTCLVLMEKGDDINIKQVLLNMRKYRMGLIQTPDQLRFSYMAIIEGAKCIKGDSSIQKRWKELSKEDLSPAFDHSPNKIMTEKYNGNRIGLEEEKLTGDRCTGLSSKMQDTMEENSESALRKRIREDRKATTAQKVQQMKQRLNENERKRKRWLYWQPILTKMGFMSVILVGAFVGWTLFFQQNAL

| pIC50 | Compound |
| --- | --- |
| 5.82 | O=C1SN(CCOc2ccc([N+](=O)[O-])cc2)CN1Cc1ccccc1 |
| 6.28 | CCN1CN(Cc2ccc(Br)cc2)C(=O)S1 |
| > 6.00 | CC(C)CCn1cc(-c2ccc(O)c(N3CC(=O)NS3(=O)=O)c2F)cn1 |
| > 6.00 | COc1ccc2cc(O)c(N3CC(=O)NS3(=O)=O)c(F)c2n1 |
| > 6.00 | CC(C)CCCc1cc2c(F)c(N3CC(=O)NS3(=O)=O)c(O)cc2n(C)c1=O |
| 5.72 | O=C1CN(c2c(O)cc3c(c2F)CNCCC3)S(=O)(=O)N1 |
| 5.28 | O=C1SN(CCN2CCN(Cc3ccc4c(c3)OCO4)CC2)CN1Cc1ccccc1 |
| < 5.00 | CC(C)CCc1ccc2ccc(N3CC(=O)NS3(=O)=O)cc2n1 |
| > 6.00 | CC(C)CCn1cnc(-c2ccc(O)c(N3CC(=O)NS3(=O)=O)c2F)c1 |
| > 6.00 | CC(C)CCc1ccc2cc(O)c(N3CC(=O)NS3(=O)=O)cc2n1 |
| 5.06 | O=C(O)CN1CCN(CCN2CN(Cc3ccccc3)C(=O)S2)CC1 |
| < 5.00 | CC(C)CCn1cnc2cc(O)c(N3CC(=O)NS3(=O)=O)c(F)c2c1=O |
| > 6.00 | CC(C)CCn1ccc(-c2ccc(O)c(N3CC(=O)NS3(=O)=O)c2F)n1 |
| > 6.00 | CC(C)CCn1ccc(-c2ccc(O)c(N3CC(=O)NS3(=O)=O)c2F)c1 |
| 6.48 | CCN1CN(Cc2ccc(Cl)cc2)C(=O)S1 |
| 5.15 | CC(C)N1CCN(CCN2CN(Cc3ccccc3)C(=O)S2)CC1 |
| 6.43 | CCN1CN(Cc2ccc(I)cc2)C(=O)S1 |
| > 6.00 | CC(C)CCc1ccc2cc(O)c(N3CC(=O)NS3(=O)=O)c(F)c2n1 |
| 6.55 | CCN1CN(Cc2ccc(F)cc2)C(=O)S1 |
| < 6.00 | CC(C)CCn1ccc2cc(O)c(N3CC(=O)NS3(=O)=O)c(F)c2c1=O |
| 5.00 | CC1(C)CCC(NCc2ccc(O)c(N3CC(=O)NS3(=O)=O)c2F)CC1 |
| > 6.00 | CC(C)CCOc1ccc2cc(O)c(N3CC(=O)NS3(=O)=O)c(F)c2n1 |
| > 6.00 | CC(C)CCn1cc(-c2ccc(O)c(N3CC(=O)NS3(=O)=O)c2F)nn1 |

Further lines, the compound ahead of its results:

| Compound | pIC50 |
| --- | --- |
| CCN1CCc2cc(O)c(N3CC(=O)NS3(=O)=O)c(F)c2CC1C (stereo unspecified) | 6.67 |
| N[C@@H]1CCc2cc(O)c(N3CC(=O)NS3(=O)=O)c(F)c2CC1 | 8.25 |
| O=C1CN(c2c(O)cc3c(c2F)C[C@H](NCCC(F)F)CC3)S(=O)(=O)N1 | 9.00 |
| O=C1CN(c2c(O)cc3c(c2F)C[C@H](NCCCC(F)(F)F)CC3)S(=O)(=O)N1 | 9.00 |
